Source: article PMC12087874, “Biaryl Phosphates and Phosphonates as Selective Inhibitors of the Transcription Factor STAT4” (Angewandte Chemie (International Ed. in English), 2025)

Legend:
Type in all cases: binding
STAT5a = target: T1, STAT5a (Homo sapiens, UniProt P42229); test: Competitive fluorescence polarization (FP) assay, STAT5a SH2 domain; settings: for Ki: Ki derived from IC50; for IC50: mean ± SD, n = 3
T1 sequence (P42229 1-794): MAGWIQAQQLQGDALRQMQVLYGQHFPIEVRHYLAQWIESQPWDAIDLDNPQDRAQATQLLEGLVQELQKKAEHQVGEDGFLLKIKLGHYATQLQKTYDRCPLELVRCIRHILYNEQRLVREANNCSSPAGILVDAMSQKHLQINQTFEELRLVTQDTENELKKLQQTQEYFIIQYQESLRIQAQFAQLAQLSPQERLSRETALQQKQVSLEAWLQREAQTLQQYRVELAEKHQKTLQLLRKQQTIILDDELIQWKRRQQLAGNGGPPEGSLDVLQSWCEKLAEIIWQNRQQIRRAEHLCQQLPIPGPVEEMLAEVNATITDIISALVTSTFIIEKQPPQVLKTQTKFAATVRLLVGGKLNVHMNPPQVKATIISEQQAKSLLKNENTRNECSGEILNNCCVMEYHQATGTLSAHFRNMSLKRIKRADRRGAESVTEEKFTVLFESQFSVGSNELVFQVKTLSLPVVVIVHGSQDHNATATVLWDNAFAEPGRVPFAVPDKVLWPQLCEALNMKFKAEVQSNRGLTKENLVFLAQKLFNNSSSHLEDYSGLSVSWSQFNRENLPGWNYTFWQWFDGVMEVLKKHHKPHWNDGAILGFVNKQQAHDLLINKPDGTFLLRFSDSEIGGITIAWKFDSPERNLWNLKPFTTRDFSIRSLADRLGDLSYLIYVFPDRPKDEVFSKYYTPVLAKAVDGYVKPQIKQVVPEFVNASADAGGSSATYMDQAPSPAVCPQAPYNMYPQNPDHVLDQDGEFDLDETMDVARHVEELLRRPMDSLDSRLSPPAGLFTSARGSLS
Procedure: (§1) Fluorescence polarization assays
(§2) Competitive fluorescence polarization assays, which measure the abilities of test compounds (dissolved in DMSO) to displace a fluorescent-labeled peptide from the SH2 domain of a STAT protein, were carried out essentially as described. Proteins were used at the following final concentrations: 23 nM or 28 nM for STAT4; between 56 nM and 91 nM for STAT1; 107 nM or 110 nM for STAT3; between 131 nM and 177 nM for STAT5a; between 62 nM and 85 nM for STAT5b; and 101 nM or 106 nM for STAT6. These concentrations represent the approximate […]
(§3) dissociation constant for peptide binding of the respective protein batches used in the assays.
(§4) The following peptides were used: 5-carboxyfluorescein-GpYLPQNID-OH for STAT4; 5-carboxyfluorescein-GpYDKPHVL for STAT1; 5-carboxyfluorescein-GpYLPQTV-NH2 for STAT3; 5-carboxyfluorescein-GpYLVLDKW for STAT5a/b, and 5-carboxyfluorescein- […]
(§5) Gp[…]-OH for STAT6. All peptides were used at a final concentration of 10 nM. The buffer consisted of 10 mM Tris (pH 8.0), 50 mM NaCl, 1 mM EDTA, 1 mM DTT, 0 .1 % Nonidet P-40 substitute, and 2 % DMSO. After incubation of protein and test compound for 1 h at room temperature, the fluorescent -labeled peptide was added. Samples were transferred to 384 - well microtiter plates and fluorescence polarization was read after an additional 60 min of incubation time. Measurements were performed in triplicate. Percent binding was calculated based on a logarithmic curve fit using OriginPro 8G software. IC 50 values were converted to Ki-values via the published equation[3] using the corresponding Excel spread sheet […]
(§6) https://websites.umich.edu/~shaomengwanglab/software/calc_ki/index.html .
(§7) Error bars represent standard deviations. Ligand efficiencies (LE) were calculated by the formula LE = -1,37 x log Ki / number of non-hydrogen atoms.[4] […]

STAT4 = target: T2, STAT4 (Homo sapiens, UniProt Q14765); test: Competitive fluorescence polarization (FP) assay, STAT4 SH2 domain; settings: for Ki / IC50: FP assay, mean ± SD, n = 3; for Ki: tracer 5-carboxyfluorescein-GpYLPQNID-OH, Ki derived from IC50, read-out: STAT4 K i
T2 sequence (Q14765 1-748): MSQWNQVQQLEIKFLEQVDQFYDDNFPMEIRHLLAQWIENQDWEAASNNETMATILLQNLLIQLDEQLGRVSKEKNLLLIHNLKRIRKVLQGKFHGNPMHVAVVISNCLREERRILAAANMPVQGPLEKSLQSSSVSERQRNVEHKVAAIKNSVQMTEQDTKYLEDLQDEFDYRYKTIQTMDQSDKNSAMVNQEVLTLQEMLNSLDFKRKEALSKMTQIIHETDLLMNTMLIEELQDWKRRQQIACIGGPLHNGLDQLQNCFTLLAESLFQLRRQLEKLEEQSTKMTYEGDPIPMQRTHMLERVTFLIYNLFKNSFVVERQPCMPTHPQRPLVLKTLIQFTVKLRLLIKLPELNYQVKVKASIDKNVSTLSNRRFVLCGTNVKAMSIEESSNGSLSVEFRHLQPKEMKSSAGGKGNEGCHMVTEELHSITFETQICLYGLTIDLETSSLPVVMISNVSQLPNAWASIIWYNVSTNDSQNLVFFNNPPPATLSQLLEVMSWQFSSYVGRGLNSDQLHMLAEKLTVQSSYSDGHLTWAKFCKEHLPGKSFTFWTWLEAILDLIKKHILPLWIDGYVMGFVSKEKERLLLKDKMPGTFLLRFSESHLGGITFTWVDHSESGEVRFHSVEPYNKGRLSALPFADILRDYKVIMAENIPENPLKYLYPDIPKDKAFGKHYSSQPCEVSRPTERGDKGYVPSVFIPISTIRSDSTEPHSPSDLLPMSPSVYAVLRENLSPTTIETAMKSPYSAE
Procedure: as §1, §2, §3, §4, §5, §6, §7

STAT3 = STAT3 (Homo sapiens, UniProt P40763); test: Competitive fluorescence polarization (FP) assay, STAT3 SH2 domain; settings: for IC50: mean ± SD, n = 3; for Ki: tracer 5-carboxyfluorescein-GpYLPQTV-NH2, Ki derived from IC50
Procedure: as §1, §2, §3, §4, §5, §6, §7

Chain of STAT3 (P40763 whole entry, species assumed, the tested form may be a part): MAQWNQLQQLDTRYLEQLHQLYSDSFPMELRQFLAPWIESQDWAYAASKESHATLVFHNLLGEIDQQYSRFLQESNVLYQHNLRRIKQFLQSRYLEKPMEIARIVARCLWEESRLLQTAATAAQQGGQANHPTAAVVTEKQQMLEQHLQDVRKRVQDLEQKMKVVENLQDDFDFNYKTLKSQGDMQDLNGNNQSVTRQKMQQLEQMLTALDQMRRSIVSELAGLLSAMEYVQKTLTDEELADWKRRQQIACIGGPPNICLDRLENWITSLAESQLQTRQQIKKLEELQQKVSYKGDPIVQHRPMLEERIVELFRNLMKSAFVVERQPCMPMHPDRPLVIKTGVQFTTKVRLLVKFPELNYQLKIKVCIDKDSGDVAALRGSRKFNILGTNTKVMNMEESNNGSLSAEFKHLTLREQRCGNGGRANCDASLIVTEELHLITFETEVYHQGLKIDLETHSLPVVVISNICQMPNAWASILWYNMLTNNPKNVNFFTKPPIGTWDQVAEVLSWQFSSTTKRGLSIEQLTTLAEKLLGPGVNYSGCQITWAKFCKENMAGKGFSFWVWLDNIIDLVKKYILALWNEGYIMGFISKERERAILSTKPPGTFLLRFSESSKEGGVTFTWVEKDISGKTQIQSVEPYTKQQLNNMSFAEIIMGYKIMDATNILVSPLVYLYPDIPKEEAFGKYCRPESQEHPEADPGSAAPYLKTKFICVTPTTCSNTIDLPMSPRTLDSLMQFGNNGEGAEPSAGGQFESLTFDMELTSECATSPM

Row | ligand efficiency (STAT4; LE = -1,37 x log Ki / number of non-hydrogen atoms, STAT4 Ki) | Structure (SMILES) | Ki (STAT5a) | IC50 (STAT5a) | Ki (STAT4) | IC50 (STAT4) | selectivity for STAT4 over the SH2 domain of STAT5a (STAT4; FP assays, Ki ratio) | selectivity for STAT4 over the SH2 domain of STAT5b (STAT4; FP assays, Ki ratio) | selectivity for STAT4 over the SH2 domains of STAT1, STAT3, and STAT6 (STAT4; FP assays, Ki ratio) | IC50 (STAT3) | Ki (STAT3) | selectivity for STAT4 over other STAT proteins (STAT4; FP assays)
1 |  | O=P(O)(O)Oc1ccc(-c2ccccc2)cc1 [Compound 1, para‐biphenyl phosphate] | 22 ± 2 µM | 42 ± 4 µM | 1100 ± 100 nM | 2300 ± 200 nM | ~20 fold | ~40 fold | 7–8 fold | 18 ± 3 µM | 8.4 ± 1 µM | 
2 |  | O=P(O)(O)Oc1ccc(-c2ccc3ccccc3c2)cc1 [Compound 6g] | 27 ± 2 µM | 55 ± 4 µM | 440 ± 90 nM | 950 ± 190 nM |  |  |  | 37 ± 2 µM | 18 ± 1 µM | 
3 |  | O=P(O)(O)Oc1ccc(-c2ccccc2)cc1F [Compound 6h] | 28 ± 1 µM | 57 ± 2 µM | 560 ± 80 nM | 1200 ± 200 nM |  |  |  | 9.1 ± 0.6 µM | 4.5 ± 0.3 µM | 
4 |  | O=P(O)(O)Oc1ccc(-c2ccc3ccccc3c2)cc1F [Compound 6m] | 22 ± 1 µM | 45 ± 2 µM | 350 ± 10 nM | 760 ± 10 nM |  |  |  | 10 ± 1 µM | 5 ± 0.5 µM | 10–70 fold
5 |  | O=P(O)(O)C(F)(F)c1ccc(-c2ccc3ccccc3c2)cc1F [Compound 8a] | 27 ± 1 µM | 54 ± 3 µM | 4000 ± 500 nM | 8500 ± 1000 nM |  |  |  | 44 ± 2 µM | 22 ± 1 µM | 
6 | 0.39 kcal/mol | Cc1cc(-c2ccc(C(F)(F)P(=O)(O)O)c(F)c2)cs1 [Compound 8k] | 39 ± 1 µM | 79 ± 2 µM | 1700 ± 200 nM | 3700 ± 400 nM |  |  |  | 31 ± 4 µM | 15 ± 2 µM | 
